Patent publication US20050239873A1 (priority 1999, published 2005)

Assays:
Bcl-xL(ΔC) WT = molecular target: T1, Bcl-xL(ΔC) WT (Homo sapiens, UniProt Q07817); assay: Pore-forming activity, calcein release from liposomes; type: biochemical
T1 construct: inferred from Ni-NTA purification and the pET22b(+) NdeI/XhoI cloning); made in house; host or cells: Escherichia coli BL21(DE3) carrying pUB520
Procedure, shortened: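 Bcl-xL(ΔC) protein (500 nM) was added to calcein-loaded 60:40 DOPC/DOPG LUVs (60 μM lipid) in 100 mM KCl, 10 mM KOAc, pH 5.0. Fluorescence was read at 490/520 nm, with kinetics at 37 °C and dose responses at room temperature. BH3 peptides were preincubated 5 min with protein; release was expressed as % of Triton X-100 lysis.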

S9 metabolism = type: in vitro ADME; details: male, hepatic S9 fraction, pH 7.4; for half-life at 500 ng/ml: 37° C.
From the text: All chemicals and solvents used for sample preparation and HPLC analysis were analytical grade. Acetonitrile, methanol, and phosphoric acid were purchased from Fisher Scientific (Atlanta, Ga.). Hepatic S9 fractions from male CD2F1 mice, male Sprague Dawley rats, male dogs, and male humans were purchased from In Vitro Technologies (Boston, Mass.). The National Cancer Institute provided samples of the test compounds and male CD2F1 mice. Fischer 344 rats with implanted jugular cannulas were obtained from Charles River Laboratories (Cambridge, Mass.). All animal use and care procedures were approved by the Institutional Committee on Animal Use and Care at the University of Alabama at Birmingham and conformed to the guidelines found in Guide for the Care and Use of Laboratory Animals, National Academy Press, 1996.
To evaluate metabolism of the test compounds by S9 fractions from various species, reaction systems maintained at 37° C. contained 2-OMe-A3 (500 ng/ml) and S9 (1 mg protein/ml) in 100 mM Tris buffer (pH 7.4). At selected times, triplicate portions of the mixtures were removed and processed for analysis, as described above.

[1] = Stability in solution at pH 7.4 (no S9); type: physicochemical; details: pH 7.4, absence of S9 proteins
AML-12.Bcl-xL cells = assay: Sensitivity of non-tumorigenic liver cells to antimycin A; type: cell-based, mouse; details: vs AML-12 control transfectants
From the text: The effects of BCl-xL over-expression on non-tumorigenic cells was also examined. […] Briefly, AML-12 cells were transfected as described above with pSFFV.Bcl-xL(sense) and pSFFV.neo. AML-12-pSFFV. Bcl-xL(sense) cells expressed approximately 3 to 4 fold higher BCl-xL protein levels than did AML-12 cells transfected with the control plasmid, pSFFV.neo, when assayed by Western blot analysis.

[2] = tested on: TAMH cells that over-express Bcl-2; assay: Sensitivity of Bcl-2 over-expressing cells to antimycin A; type: cell-based, murine; details: vs control cells
TABX2S cells = assay: Cellular respiration by oximetry; type: cell-based, murine; details: higher concentrations (above 1 μg/ml)
Description: (§1) Briefly, TABX2S cells (over-expressing Bcl-xL) and control cells (TAMH.neo) were suspended in air-equilibrated complete medium at a density of 3 million cells per milliliter and placed in a thermostatted electrode chamber at 37° C.

TAMH.neo control cells = assay: Cellular respiration by oximetry; type: cell-based, murine; details: higher concentrations (above 1 μg/ml)
Description: as §1

T1 sequence (Q07817 1-211 limits assumed, stated change not applied): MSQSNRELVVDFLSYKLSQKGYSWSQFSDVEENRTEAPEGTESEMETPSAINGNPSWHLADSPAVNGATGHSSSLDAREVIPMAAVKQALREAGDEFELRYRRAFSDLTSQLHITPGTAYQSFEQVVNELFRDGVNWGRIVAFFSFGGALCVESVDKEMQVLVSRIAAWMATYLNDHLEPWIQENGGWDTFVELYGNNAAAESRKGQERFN

With `CCCCCC[C@H]1C(=O)O[C@H](C)[C@H](NC(=O)c2cccc(NC=O)c2OC)C(=O)O[C@@H](C)[C@@H]1OC(=O)CC(C)C` [2-OMeA1, 2-methoxy antimycin A1] the “effect on Bcl-xL pore-forming activity” value (Bcl-xL(ΔC) WT) was “inhibited”.
With `CCCC[C@H]1C(=O)OC(C)[C@H](NC(=O)c2cccc(NC=O)c2OC)C(=O)O[C@@H](C)C1OC(=O)CC(C)C` (stereo partly drawn) [2-OMeA3, Antimycin A3 methyl ether] the half-life at 2000 ng/ml (S9 metabolism; CD2F1, mouse) was > 5 min, the half-life at 500 ng/ml (S9 metabolism; CD2F1, mouse) was > 5 min and the half-life at 2000 ng/ml (S9 metabolism; Sprague Dawley, rat) was > 5 min. The half-life at 500 ng/ml (S9 metabolism; Sprague Dawley, rat) was > 5 min, the half-life at 2000 ng/ml (S9 metabolism; dog) was > 5 min and the half-life at 500 ng/ml (S9 metabolism; dog) was > 5 min. The stability in solution [1] was “not stable”.
For antimycin A, the “sensitivity to antimycin A” value (AML-12.Bcl-xL cells) was “increased sensitivity”, the “sensitivity to antimycin A” value [2] was “more sensitive” and the “basal oxygen consumption maintained” value (TABX2S cells) was “about 20%”. For the same molecule, the oxygen consumption (TAMH.neo control cells) was “almost completely inhibited”.
